Experimental data published in patent publication US10683293B2, “Optionally fused heterocyclyl-substituted derivatives of pyrimidine useful for the treatment of inflammatory, metabolic, oncologic and autoimmune diseases” (NUEVOLUTION A/S, priority 2014, dated 2020).

Assays:
[1] = molecular target: T1, human RORγt (Ligand Binding Domain) (Homo sapiens, UniProt P51449); experiment: Fluorescence Polarization (FP) Assay; settings: 100 nM human RORγt LBD, 25 nM TAMRA probe, values are activity range bounds
T1 construct: purchased Crelux (Planegg, Germany) batch no PC5032-1
T1 sequence (P51449 269-508 limits assumed): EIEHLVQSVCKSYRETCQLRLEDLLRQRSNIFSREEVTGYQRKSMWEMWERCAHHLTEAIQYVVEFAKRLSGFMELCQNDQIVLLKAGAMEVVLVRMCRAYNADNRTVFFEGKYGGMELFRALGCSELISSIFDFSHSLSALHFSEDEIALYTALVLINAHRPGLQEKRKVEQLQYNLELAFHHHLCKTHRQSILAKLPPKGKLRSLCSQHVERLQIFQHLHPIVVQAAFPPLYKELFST
Method in brief: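 Binding to the RORγt ligand-binding domain was followed by FP. Displacement of a TAMRA-tagged RORγt ligand tracer (910 g/mol) was measured, with DMSO-only wells as negative control.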

[2] = molecular target: T2, ligand binding domain of human RORγ (Homo sapiens, UniProt P51449); experiment: RORγ Reporter Assay (Gal4); format: cell-based; settings: for inhibition at 1 µM: HEK-293T, 1 μM test compound, HEK293t RORγ reporter cells, 24 hour, read-out: Gal4 activity range @ 1 μM (% inhibition); for Gal4 activity range @ 0.1 μM (% inhibition): RORγ Reporter Assay (Gal4), HEK293t reporter cells, compound at 0.1 μM, values are activity range bounds
T2 construct: host or cells: HEK293t
T2 sequence (P51449 269-508 limits assumed): T1 sequence (P51449 269-508 limits assumed)
Method in brief: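 HEK293t cells expressing Gal4 DBD–human RORγ LBD hybrid with Gal4-UAS firefly luciferase reporter; compounds at final 1,000 nM and 100 nM (0.1% DMSO), triplicate, medium with 10% charcoal-stripped FBS, 24 h at 37 °C. Luminescence read; percent reduction of RORγ activity calculated versus vehicle-only wells.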

female C57BL/6 mice = experiment: Experimental Autoimmune Encephalomyelitis (EAE) Study; format: in vivo, mouse; settings: 30 mg/kg, orally twice daily, from day of EAE induction, 25 days
male DBA/1J mice = experiment: Collagen-Induced Arthritis (CIA) Study; format: in vivo, mouse; settings: 30 mg/kg, orally twice daily, therapeutic setting (from day 27 until day 41)
Source text: Compounds disclosed herein have also been evaluated in two different mouse in vivo disease models: Experimental Autoimmune Encephalomyelitis (EAE) model (an animal model for multiple sclerosis), and Collagen-induced Arthritis (CIA) model (an animal model for rheumatoid arthritis).
Collagen-Induced Arthritis (CIA) Study
Collagen-induced arthritis is an animal model of rheumatoid arthritis used to evaluate the efficacy of test compounds. CIA was induced at Washington Biotechnology Inc. (Baltimore) in male DBA/1J mice (Jackson Laboratories) by subcutaneous injection at the base of the tail with 50 μl of a bovine collagen/complete Freund's adjuvant emulsion. After 21 days, the mice were further boosted by a further subcutaneous injection of 50 μl of a collagen/incomplete Freund's adjuvant emulsion. For treatment, compound or vehicle (2% DMSO, 10% HP-β-CD in MilliQ water) was given orally twice daily at various doses selected from 3, 10, 30 mg/kg, beginning at the day of CIA induction (Prophylactic setting), or after disease initiation (at day 27, therapeutic setting). Treatment lasted until day 41, and the animals were scored three times weekly. Each paw was scored and the sum of all four scores was recorded as the Arthritic Index (AI). […] The Arthritis Index for each treatment can be expressed as the mean score for each treatment group+/−S.E.M.

| IC50 [1] | inhibition at 1 µM [2] | Gal4 activity range @ 0.1 μM (% inhibition) [2] | Compound | EAE clinical score (female C57BL/6 mice) | onset of EAE (female C57BL/6 mice) | disease severity (CIA, Arthritic Index) (male DBA/1J mice) | rate of disease development (CIA) (male DBA/1J mice) |
| --- | --- | --- | --- | --- | --- | --- | --- |
| < 500 nM | > 80% | >80 % inhibition | CS(=O)(=O)N1CCC(CNc2ncnc(N(Cc3ccc(C(F)(F)F)cc3)C3CC3)c2F)CC1 [Example A7, N4-cyclopropyl-5-fluoro-N6-[(1-methylsulfonyl-4-piperidyl)methyl]-N4-[[4-(trifluoromethyl)phenyl]methyl] pyrimidine-4,6-diamine] | significantly lower the clinical score | delay onset | significantly reduce disease severity | decrease rate of disease development |
| < 2000 nM | > 80% | >20 % inhibition | CS(=O)(=O)N1CCC2(CC2Nc2ncnc(N(Cc3ccc(C(F)(F)F)cc3)C3CC3)c2F)C1 (stereo not shown) [Example A172, N6-cyclopropyl-5-fluoro-N4-(6-methylsulfonyl-6-azaspiro[2.4]heptan-2-yl)-N6-[[4-(trifluoromethyl)phenyl]methyl] pyrimidine-4,6-diamine] |  |  |  |  |
| < 500 nM | > 80% | >20 % inhibition | CS(=O)(=O)N1CC2CC2(CNc2ncnc(N(Cc3ccc(C(F)(F)F)cc3)C3CC3)c2F)C1 (stereo not shown) [Example A174, N6-cyclopropyl-5-fluoro-N4-[(3-methylsulfonyl-3-azabicyclo[3.1.0]hexan-5-yl)methyl]-N6-[[4-(trifluoromethyl)phenyl]methyl] pyrimidine-4,6-diamine] |  |  |  |  |
| < 500 nM | > 80% | >50 % inhibition | CS(=O)(=O)N1CC2CCC(Nc3ncnc(N(Cc4ccc(C(F)(F)F)cc4)C4CC4)c3F)C2C1 (stereo not shown) [Example A175, N6-cyclopropyl-5-fluoro-N4-(2-methylsulfonyl-3,3a,4,5,6,6a-hexahydro-1H-cyclopenta[c]pyrrol-4-yl)-N6-[[4-(trifluoromethyl)phenyl]methyl] pyrimidine-4,6-diamine] |  |  |  |  |
| < 500 nM | > 50% | >0 % inhibition | NC(=O)Cc1ccc(CNc2ncnc(N(Cc3cccc(C(F)(F)F)n3)C3CC3)c2F)cc1 [Example A176, 2-[4-[[[6-[cyclopropyl-[[6-(trifluoromethyl)-2-pyridyl]methyl]amino]-5-fluoro-pyrimidin-4-yl]amino]methyl]phenyl]acetamide] |  |  |  |  |
| < 500 nM | > 20% | >0 % inhibition | NC(=O)Cc1ccc(CNc2ncnc(N(Cc3cc(C(F)(F)F)ccn3)C3CC3)c2F)cc1 [Example A178, 2-[4-[[[6-[cyclopropyl-[[4-(trifluoromethyl)-2-pyridyl]methyl]amino]-5-fluoro-pyrimidin-4-yl]amino]methyl]phenyl]acetamide] |  |  |  |  |
| < 500 nM | > 80% | >20 % inhibition | NC(=O)Cc1ccc(CNc2ncnc(N(Cc3ccc(C(F)F)nc3)C3CC3)c2F)cc1 [Example A179, 2-[4-[[[6-[cyclopropyl-[[6-(difluoromethyl)-3-pyridyl]methyl]amino]-5-fluoro-pyrimidin-4-yl]amino]methyl]phenyl]acetamide] |  |  |  |  |
| < 500 nM | > 80% | >0 % inhibition | O=C(O)C[C@@H](CCc1ccccc1)Nc1ncnc(N(Cc2ccc(C(F)(F)F)cc2)C2CC2)c1F [Example A181, (3R)-3-[[6-[cyclopropyl-[[4-(trifluoromethyl)phenyl]methyl]amino]-5-fluoro-pyrimidin-4-yl]amino]-5-phenyl-pentanoic acid] |  |  |  |  |
| < 500 nM | > 80% | >80 % inhibition | NC(=O)Cc1ccc(Cn2ccc3c(N(Cc4ccc(C(F)(F)F)cc4)C4CC4)ncnc32)cc1 [Example I1, 2-(4-((4-(cyclopropyl (4-(trifluoromethyl)benzyl)amino)-7H-pyrrolo[2,3-d]pyrimidin-7-yl)methyl)phenyl)acetamide] |  |  |  |  |
| < 500 nM | > 80% | >50 % inhibition | Fc1c(NCc2ccc(Cc3nnn[nH]3)cc2)ncnc1N(Cc1ccc(C(F)(F)F)cc1)C1CC1 [Example T1, N6-cyclopropyl-5-fluoro-N4-[[4-(1H-tetrazol-5-ylmethyl)phenyl]methyl]-N6-[[4-(trifluoromethyl)phenyl]methyl] pyrimidine-4,6-diamine] |  |  |  |  |
| < 500 nM | > 50% | >20 % inhibition | O=S(=O)(CC(F)(F)F)NC1CCC(CNc2ncnc(N(Cc3ccc(C(F)(F)F)cc3)C3CC3)c2F)CC1 (stereo not shown) [x, N-[4-[[[6-[cyclopropyl-[[4-(trifluoromethyl)phenyl]methyl]amino]-5-fluoro-pyrimidin-4-yl]amino]methyl]cyclohexyl]-2,2,2-trifluoro-ethanesulfonamide] |  |  |  |  |
